In US5527811A, “Isoquinolinyl compounds which are useful in treating cerebral vascular disorders” (Takeda Chemical Industries, Ltd., priority 1993, dated 1996):
Like-named read-outs stand apart in the source and are kept apart here. Values belong to the compound of their own block, whether it stands above or below them.

Experiments:
[1] = test system: transient cerebral ischemia in mongolian gerbils; test: Protective effect of cerebralischemia: survival ratio after bilateral common carotid occlusion and reperfusion in gerbils; type: in vivo, mongolian gerbil; settings: Meriones unguiculatus; 5 mg/kg, ip; 30 min before occlusion and 90 min after reperfusion; estimated 8 hr after reperfusion; control 0; read-out: Survival ratio
Method: Test Example 1 Protective effect of cerebralischemia
Male mongolian gerbils (Seiwa/8-10 wks) (n=8-10) were used. Bilateral common carotid arteries were occluded after the incision of the center of the neck under ether anesthesia. Global cerebral ischemia was induced by the occlusion of bilateral common carotid arteries (15 minutes), and after that these arteries were reperfused. Test sample was administered intraperiatonelly 30 minutes before occlusion and 90 minutes after reperfusion. In the control group, vehicle (distilled water, saline or 5% gum arabic) was administered in the same fashion. Survival ratio was estimated at 8 hr after reperfusion (Table 2).

[2] = test system: brain edema in male wistar rats; test: Anti-brain edema effect (middle cerebral arterial occlusion and reperfusion model); type: in vivo, rat (wistar); settings: 10 mg/kg(ip) × 7, rat, 3rd day after reperfusion, * p < 0.05
Description: Test Example 2 Anti-brain edema effect (middle cerebral arterial occlusion and reperfusion model)
Male wistar rats (Jcl:9wks) were anesthetized with inhalation of halothane (2-bromo-2-chloro-1,1,1-trifluoroethane). After the incision of neck, bilateral common carotid arteries were […] an embolized needle (diameter 0.3 mm, length 26 mm nylon thread) was inserted into the left internal carotid artery through external carotid artery and, simultaneously, the bilateral common carotid arteries were occluded by the Sugita's aneurysm clips. The embolized needle and the clips were removed out 30 minutes after occlusion. Test sample was administered immediately and 5 hr after reperfusion on the operated day, twice a day on the 1st and 2nd day, and 1 hr before removing the brain on the 3rd day (total 7 times), intraperiatonelly. In the control group, vehicle (distilled water, saline or 5% gum arabic) was administered in the same fasion. Brain edema on the 3rd day after reperfusion was estimated from the content of water, potassium and sodium in cerebral cortex and striatum. Water content was calculated from the ratio of dried brain weight and wet brain weight [(1-dried weight/wet weight)×100%]. The contents of pottasium and sodium were measured using the solution extracted from dried brain tissue with 14% nitric acid by the method of the framephotometer (Table 3).

[3] = test system: cytosolic free Ca^2+ in hippocampal neurons; test: Effect on cytosolic free Ca^2+ concentration in neurons (L-glutamic acid-induced [Ca^2+]i increase, fura-2); type: cell-based; settings: Rattus norvegicus, Hippocampal neuron, L-Glu.-induced [Ca^2+]i increase
Method: Effect on cytosolic free Ca^2+ concentration in neurons
Neurons were harvested from hippocampi of 18-day-old rat embryos and cultured based on the method of Hatanaka and Tsukui (Developmental Brain Research, 30, 47-56, 1986). Hippocampal neurons suspended in Dulbecco's modified Eagle's medium were seeded on cover glass slides (10×20 mm, Matunami No. 1, Osaka, Japan) coated with poly-L-lysin at a density of 2.5×10^5 cells/slide and cultured for 7 days in humidified CO2 incubator (95% air/5% CO2) at 37° C. The neurons were washed 3 times with HEPES [N-(2-hydroxyethyl)piperazine-N'-2-ethanesulfonic acid]-buffered physiological salt solution (PSS) (140 mM NaCl, 5 mM KCl, 1 mMMgSO4, 1 mM Na2 HPO4, 1 mM CaCl2, 25 mM glucose, 25 mM HEPES, pH7.4), and then loaded with fura-2 acetoxymethyl ester (4 μM) in HEPES-buffered PSS for 60 min at 37° C. The cover glass slide coated with neurons, which were loaded with fura-2, was inserted into a cuvette that contained 2.5 ml HEPES-buffered PSS supplemented with 0.05% bovine serum albumin. Ca2+ -fura-2 fluorescence was measured with Hitachi F-2000 spectrofluorimeter by 340 nm and 380 nm for excitation and 505 nm for emission. Cytosolic free Ca^2+ concentration ([Ca^2+ ]i) values were calculated according to the method of Grynkiewicz et. al, (Journal of Biological Chemistry, 260, 3440-3450, 1985). Neurons were treated with example-compounds 5 min before the addition of L-glutamic acid (L-Glu.).
L-Glu. leads to two phases-increase of [Ca^2+ ]i in neurons. The first increase of [Ca^2+ ]i is caused by the release from cellular Ca^2+ stores and the influx of extracellular Ca^2+. The second one is caused by the influx of extracellular Ca^2+. The effect of the drug on these two phases-increase of [Ca^2+ ]i was examined and the 50% inhibitory dose (IC50) was calculated.

[4] = target: T1, substance P receptor from human lymphoblast cells (IM-9) (Homo sapiens, UniProt P25103); test: Radioligand receptor binding inhibitory assay using receptor from human lymphoblast cells (IM-9), 125I-BHSP; settings: 25° C., 30 minutes, pH 7.4
T1 construct: The receptor was prepared from human lymphoblast cells (IM-9); endogenous in cells; host or cells: IM-9 human lymphoblast cells (washed membrane preparation)
Method: Radioligand receptor binding inhibitory assay using receptor from human lymphoblast cells (IM-9)
The method of "A. Margaret et al. Molecular Pharmacology 42, 458 (1992)" was modified and used. The receptor was prepared from human lymphoblast cells (IM-9). IM-9 cells were grown in 175 cm^2 tissue culture flasks (100 ml z 10) at a density approximately 2×10^5 /ml of RPMI 1640 with L-glutamine, 10% (V/V) heat inactivated fetal calf serum, penicillin (100 u/ml), and streptomycin (100 μg/ml) at 37° C. in 5%CO2 /95% air for 3 days. IM-9 cells were obtained by centrifugation at 500 Xg for 5 minutes at 5° C. The pellet obtained was washed once with phosphate buffer (Flow Laboratories, CAT No. 28-103-05), homogenized using Polytron homogenizer (Kinematika, Germany) in 30 ml of 50 mM Tris-HCl buffer containing 120 mM NaCl, 5 mM KCl, 2 μg/ml phenylmethyl sufonyl fluoride, and 1 mM ethylenediamine tetra-acetic acid and then centrifuged at 40,000 Xg for 20 minutes. The residue was washed twice with 30 ml of buffer described above, and preserved frozen (-80° C.).
The above specimen was suspended in a reaction buffer (50 mM Tris-HCl buffer (pH 7.4), 0.02% bovine serum albumin, 1 mM phenylmethylsufonyl fluoride, 2 μg/ml chymostatin, 40 μg/ml bacitracin, 3 mM manganese chloride) at a protein concentration of 1.5 mg/ml and a 100 μl portion of the suspension was used in the reaction. After addition of the sample and 125I-BHSP (0.46 KBq), the reaction was conducted in 0.2 ml of reaction buffer at 25° C. for 30 minutes. The amount of nonspecific binding was determined by adding substance P at a final concentration of […]. After the reaction, using a cell harvester (290PHD, Cambridge Technology, Inc., England), rapid filtration was carried out through a glass filter (GF/B, Whatman, U.S.A.) to stop the reaction. After washing three times with 250 μl of 50 mM Tris-HCl buffer (pH 7.4) containing 0.02% bovine serum albumin, the radioactivity remaining on the filter was measured with a gamma counter. Before use, the filter was immersed in 0.1% polyethyleneimine for 24 hours and air-dried. […]

T1 sequence (P25103 whole entry): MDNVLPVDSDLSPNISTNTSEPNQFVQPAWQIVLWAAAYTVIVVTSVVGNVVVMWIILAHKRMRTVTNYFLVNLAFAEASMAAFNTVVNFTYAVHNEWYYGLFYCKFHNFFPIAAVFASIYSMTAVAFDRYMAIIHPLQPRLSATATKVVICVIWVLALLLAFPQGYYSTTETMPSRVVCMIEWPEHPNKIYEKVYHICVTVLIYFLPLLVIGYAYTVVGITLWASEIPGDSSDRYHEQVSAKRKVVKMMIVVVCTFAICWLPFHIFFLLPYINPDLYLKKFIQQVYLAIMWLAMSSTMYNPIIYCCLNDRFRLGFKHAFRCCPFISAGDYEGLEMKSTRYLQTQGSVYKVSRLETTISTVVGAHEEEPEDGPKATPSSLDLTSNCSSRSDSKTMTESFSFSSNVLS

Compound: CC(C)Oc1cccc(NC(=O)NCc2c(-c3ccccc3)c3cc(Cl)ccc3c(=O)n2C)c1 [Example 1, N-[(6-Chloro-1,2-dihydro-2-methyl-1-oxo-4-phenylisoquinolin-3-yl)methyl]-N'-(3isopropoxyphenyl)urea]
responders at 5 mg/kg [1]: 88%
H2O (water content of brain) ([2]; control 81.27 (Example 1), 80.94 (Example 15(HCl))): 80.12 ± 0.32%
Na (sodium content of brain) ([2]; control 405 (Example 1), 371 (Example 15(HCl))): 322 ± 24 mEq/kg
K (potassium content of brain) ([2]; control 430 (Example 1), 440 (Example 15(HCl))): 471 ± 13 mEq/kg
IC50 ([3]; with EGTA, 1st phase (release from cellular Ca^2+ stores), read-out: IC50 with EGTA, 1st Phase): 0.069 µM
IC50 ([3]; without EGTA, 1st phase, read-out: IC50 without EGTA, 1st Phase): 3 µM
IC50 ([3]; without EGTA, 2nd phase, read-out: IC50 without EGTA, 2nd Phase): > 10 µM

IC50 [4]: 0.047 µM
Compound: Cc1cc2c(-c3ccccc3)c(CN(C)C(=O)c3cc(C(F)(F)F)cc(C(F)(F)F)c3)n(C)c(=O)c2cc1C [Example 36, 3,5-Bis(trifluoromethyl)-N-[(1,2-dihydro-2,6,7-trimethyl-1-oxo-4-phenylisoquinolin-3-yl)methyl]-N-methylbenzamide]

IC50 [4]: 0.001 µM
Compound: CN(Cc1c(-c2ccccc2)c2ccccc2c(=O)n1C)C(=O)c1cc(C(F)(F)F)cc(C(F)(F)F)c1 [Example 37, 3,5-Bis(trifluoromethyl)-N-[(1,2-dihydro-2-methyl-1-oxo-4-phenylisoquinolin-3-yl)methyl]-N-methyl benzamide]

IC50 [4]: 0.072 µM
Compound: CN(Cc1c(-c2ccccc2)c2cc(Cl)ccc2c(=O)n1C)C(=O)c1cc(C(F)(F)F)cc(C(F)(F)F)c1 [Example 38, 3,5-Bis(trifluoromethyl)-N-[(6-chloro-1,2-dihydro-2-methyl-1-oxo-4-phenylisoquinolin-3-yl)methyl]-N-methylbenzamide]
